Measured values as given in ChEMBL document CHEMBL3621051, “Design and synthesis of 4-benzyl-1-(2H)-phthalazinone derivatives as novel androgen receptor antagonists” (Eur J Med Chem, 2015).

Target: Androgen receptor (Mus musculus) (UniProt P19091)
Assay: Antagonist activity at wild type AR expressed in mouse SC-3 cells assessed as inhibition of 1 nM DHT-induced cell proliferation after 3 days by WST-8 assay; call rule not given here

Androgen receptor (Mus musculus), sequence (P19091 whole entry, looked up): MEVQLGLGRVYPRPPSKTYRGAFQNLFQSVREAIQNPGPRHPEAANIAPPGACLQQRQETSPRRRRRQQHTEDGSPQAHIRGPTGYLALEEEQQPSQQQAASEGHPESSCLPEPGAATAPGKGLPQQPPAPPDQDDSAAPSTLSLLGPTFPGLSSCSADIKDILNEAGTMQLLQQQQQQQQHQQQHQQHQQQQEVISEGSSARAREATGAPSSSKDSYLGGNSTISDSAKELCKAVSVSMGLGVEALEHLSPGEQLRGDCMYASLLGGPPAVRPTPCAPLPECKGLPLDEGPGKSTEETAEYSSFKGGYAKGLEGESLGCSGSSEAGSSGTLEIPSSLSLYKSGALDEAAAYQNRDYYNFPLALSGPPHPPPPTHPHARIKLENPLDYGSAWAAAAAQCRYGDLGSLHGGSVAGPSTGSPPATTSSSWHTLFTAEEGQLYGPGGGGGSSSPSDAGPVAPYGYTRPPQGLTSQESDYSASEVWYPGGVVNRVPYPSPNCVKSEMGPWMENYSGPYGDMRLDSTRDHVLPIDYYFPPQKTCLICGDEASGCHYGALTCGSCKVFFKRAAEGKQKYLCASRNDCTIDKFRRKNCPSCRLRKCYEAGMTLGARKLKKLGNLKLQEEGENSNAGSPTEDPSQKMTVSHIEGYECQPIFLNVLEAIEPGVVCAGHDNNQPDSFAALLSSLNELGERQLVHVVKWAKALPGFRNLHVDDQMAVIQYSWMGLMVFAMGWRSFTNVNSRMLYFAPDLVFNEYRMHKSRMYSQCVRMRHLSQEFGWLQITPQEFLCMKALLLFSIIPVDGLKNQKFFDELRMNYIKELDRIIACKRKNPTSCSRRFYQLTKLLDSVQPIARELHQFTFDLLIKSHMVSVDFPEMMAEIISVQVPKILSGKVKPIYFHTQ

SMILES | IC50
O=[N+]([O-])c1ccc(Cc2nnc(O)c3ccccc23)cc1 | Not Active
Nc1ccc(Cc2n[nH]c(=O)c3ccccc23)cc1 | Not Active
CC(=O)Nc1ccc(Cc2n[nH]c(=O)c3ccccc23)cc1 | Not Active
O=C(Nc1ccc(Cc2n[nH]c(=O)c3ccccc23)cc1)C(F)(F)F | Not Active
CS(=O)(=O)Nc1ccc(Cc2n[nH]c(=O)c3ccccc23)cc1 | Not Active
CCN(CC)c1ccc(Cc2n[nH]c(=O)c3ccccc23)cc1 | Not Active
CCNc1ccc(Cc2n[nH]c(=O)c3ccccc23)cc1 | Not Active
CN(C)c1ccc(Cc2n[nH]c(=O)c3ccccc23)cc1 | Not Active
CNc1ccc(Cc2n[nH]c(=O)c3ccccc23)cc1 | Not Active
O=C(O)c1ccccc1Cc1n[nH]c(=O)c2ccccc12 | Not Active
CC(=O)Nc1ccccc1Cc1n[nH]c(=O)c2ccccc12 | Not Active
CS(=O)(=O)Nc1ccccc1Cc1n[nH]c(=O)c2ccccc12 | Not Active
